Reference: publication PMC6001238, “Iterative Chemical Engineering of Vancomycin Leads to Novel Vancomycin Analogs With a High in Vitro Therapeutic Index” (Frontiers in Microbiology, 2018)
≈ marks a conversion by molar mass, not a printed value. Where two headings read alike, the source gives them in different places.

Tests used:
[1] = system: VE 152 (VanB); test: MIC, VanB-type VRE strain VE 152; type: cell-based, Enterococcus; conditions: Enterococcus; VE 152, VanB; read-out: MIC
Experimental: (§1) The minimum inhibitory concentration (MIC) was determined using the broth microdilution method according to the antimicrobial susceptibility testing standards of the clinical and laboratory standards institute ([Clinical and Laboratory Standards Institute [CLSI], 2012]). Ultrapure water and non-inoculated broth were used as controls. In one case, a final concentration of 10 μM vancomycin was included with the vancomycin analog or control antibiotic.

[2] = system: VE 148 (VanB); test: MIC, VanB-type VRE strain VE 148; type: cell-based, Enterococcus; conditions: Enterococcus; VE 148, VanB; read-out: MIC
Experimental: as §1

[3] = system: S. aureus VRSA; test: MIC, broth microdilution, vancomycin-resistant S. aureus (VRSA); type: cell-based, Staphylococcus aureus
How it was run: (§2)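 Broth microdilution per CLSI; controls = ultrapure water, non-inoculated broth. One set: + vancomycin 10 μM final alongside test analogue/control drug.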

[4] = system: Clostridium difficile AIU ribotype 027; test: MIC, plate drop assay, C. difficile AIU ribotype 027; type: cell-based
How it was run: (§3)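 Twofold dilution series of test compounds were spotted onto C. difficile lawns in 0.4% BHI agar containing added calcium and magnesium salts. After overnight anaerobic incubation at 37°C, growth inhibition was scored by spot clearing; triplicate runs, ultrapure water negative control.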

[5] = system: L1210, CEM and HeLa cell lines; test: Cytostatic activity, average or summary over L1210, CEM and HeLa; type: cell-based
How it was run: (§4)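 Suspensions (300,000–500,000 cells/mL) combined with equal volumes of diluted compound; 37°C; L1210 2 d / CEM 3 d / HeLa 4 d; counted by Coulter counter; IC50 vs untreated wells.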

[6] = system: Clostridium difficile ATJ ribotype 014/20; test: MIC, plate drop assay, C. difficile ATJ ribotype 014/20; type: cell-based
How it was run: as §3

[7] = system: MRSA KS1; test: MIC, broth microdilution, MRSA KS1; type: cell-based, Staphylococcus aureus
How it was run: as §2

[8] = system: VE 82 (VanC1); test: MIC, VanC1-type VRE strain VE 82; type: cell-based, Enterococcus gallinarum; conditions: Enterococcus gallinarum; VE 82, VanC1; read-out: MIC
Experimental: as §1

[9] = system: 33 clinical VRE isolates; test: MIC against a set of 33 clinical VRE isolates (range, MIC50, TI); type: cell-based, Enterococcus faecalis
Experimental: as §1

[10] = system: VE 150 (VanB); test: MIC, VanB-type VRE strain VE 150; type: cell-based, Enterococcus; conditions: Enterococcus; VE 150, VanB; read-out: MIC
Experimental: as §1

[11] = system: human cervix carcinoma (HeLa) cells; test: Cytostatic activity, HeLa cell proliferation; type: cell-based; conditions: Homo sapiens, HeLa, 96 h; mean ± SD of three experiments; highest concentration tested 250 µM; 4 days; read-out: Toxicity (IC50) HeLa
How it was run: as §4

[12] = system: VE 157 (VanB); test: MIC, VanB-type VRE strain VE 157; type: cell-based, Enterococcus; conditions: Enterococcus; VE 157, VanB; read-out: MIC
Experimental: as §1

[13] = system: MRSA KS89; test: MIC, broth microdilution, MRSA KS89; type: cell-based, Staphylococcus aureus
How it was run: as §2

[14] = system: E. faecalis VSE 1; test: MIC, broth microdilution, vancomycin-sensitive E. faecalis (VSE 1); type: cell-based, Enterococcus faecalis
How it was run: as §2

[15] = system: MRSA; test: Minimum bactericidal concentration against MRSA; type: cell-based, Staphylococcus aureus
Experimental: Plates were incubated overnight at 37°C and colony growth was inspected.

[16] = system: E. faecalis VRE 53; test: MIC, broth microdilution, vancomycin-resistant E. faecalis VRE 53 (VanA); type: cell-based, Enterococcus faecalis
How it was run: as §2

[17] = system: VE 149 (VanB); test: MIC, VanB-type VRE strain VE 149; type: cell-based, Enterococcus; conditions: Enterococcus; VE 149, VanB; read-out: MIC
Experimental: as §1

[18] = system: 24 clinical MRSA isolates; test: MIC against a set of 24 clinical MRSA isolates (range, MIC50, TI); type: cell-based, Staphylococcus aureus
Experimental: as §1

[19] = system: Murine leukemia (L1210) cells; test: Cytostatic activity, L1210 cell proliferation; type: cell-based; conditions: Mus musculus, L1210, 48 h; mean ± SD of three experiments; highest concentration tested 250 µM; 2 days; read-out: Toxicity (IC50) L1210
How it was run: as §4

[20] = system: E. faecalis VRE 37; test: MIC, broth microdilution, vancomycin-resistant E. faecalis VRE 37 (VanA); type: cell-based, Enterococcus faecalis
How it was run: as §2

[21] = system: human T-lymphocyte (CEM) cells; test: Cytostatic activity, CEM cell proliferation; type: cell-based; conditions: Homo sapiens, CCRF-CEM, 72 h; mean ± SD of three experiments; highest concentration tested 250 µM; 3 days; read-out: Toxicity (IC50) CEM
How it was run: as §4

[22] = system: MRSA KS2; test: MIC, broth microdilution, MRSA KS2; type: cell-based, Staphylococcus aureus
How it was run: as §2

[23] = system: E. faecalis VRE 29; test: MIC, broth microdilution, vancomycin-resistant E. faecalis VRE 29 (VanA); type: cell-based, Enterococcus faecalis
How it was run: as §2

[24] = system: E. faecalis VRE 6; test: MIC, broth microdilution, vancomycin-resistant E. faecalis VRE 6 (VanA); type: cell-based, Enterococcus faecalis
How it was run: as §2

[25] = system: MRSA KS6; test: MIC, broth microdilution, MRSA KS6; type: cell-based, Staphylococcus aureus; conditions: Staphylococcus aureus MRSA KS6; read-out: MIC
How it was run: as §2

[26] = system: S. aureus VSSA (ATCC 6538); test: MIC, broth microdilution, vancomycin-sensitive S. aureus (VSSA/MSSA, ATCC 6538); type: cell-based, Staphylococcus aureus
How it was run: as §2

[27] = system: S. aureus VISA/HIP5827; test: MIC, broth microdilution, vancomycin-intermediate S. aureus VISA HIP5827; type: cell-based, Staphylococcus aureus
How it was run: as §2

CCCCCCCCCC(=O)N[C@@H](Cc1c[nH]c2ccccc12)C(=O)N[C@H](CC(N)=O)C(=O)N[C@@H](CC(=O)O)C(=O)N[C@@H]1C(=O)NCC(=O)N[C@@H](CCCN)C(=O)N[C@@H](CC(=O)O)C(=O)N[C@H](C)C(=O)N[C@@H](CC(=O)O)C(=O)NCC(=O)N[C@H](CO)C(=O)N[C@@H]([C@H](C)CC(=O)O)C(=O)N[C@@H](CC(=O)c2ccccc2N)C(=O)O[C@@H]1C [Daptomycin, reference compound] showed an MIC [1] of 25 µM (≈ 40.5 µg/mL), an MIC [2] of 25 µM (≈ 40.5 µg/mL) and an MIC ([3]; Staphylococcus aureus VRSA, read-out: MIC) of 12.5 µM (≈ 20.3 µg/mL). For the same molecule, the “MIC-fold improvement vs. vancomycin” value ([3]; VRSA, ratio of MIC of vancomycin and MIC of analogue) was 8, the “MIC-fold improvement vs. vancomycin” value ([4]; C. difficile AIU ribotype 027) was 29 and the MIC ([4]; Clostridioides difficile, C. difficile AIU ribotype 027, plate drop assay) was 1.56 µM (≈ 2.53 µg/mL). For the same molecule, the IC50 ([5]; average IC50 used for TI in Table S5, >250 entered as 250, read-out: IC50) was 250 µM, the IC50 ([5]; average of L1210, CEM and HeLa, read-out: Toxicity (IC50) Average) was over 250 µM and the “MIC-fold improvement vs. vancomycin” value ([6]; C. difficile ATJ ribotype 014/20) was 22. The MIC ([6]; Clostridioides difficile, C. difficile ATJ ribotype 014/20, plate drop assay) was 1.56 µM (≈ 2.53 µg/mL), the “MIC-fold improvement vs. vancomycin” value ([7]; MRSA KS1, ratio of MIC of vancomycin and MIC of analogue) was 0.05 and the MIC ([7]; Staphylococcus aureus MRSA KS1, read-out: MIC) was 12.5 µM (≈ 20.3 µg/mL). The MIC [8] was 12.5 µM (≈ 20.3 µg/mL), the “MIC Range” value ([9]; 33 clinical VRE isolates) was 3.13 to 12.5 µM and the MIC50 ([9]; Enterococcus, median MIC, 33 clinical VRE isolates, read-out: MIC50) was 6.25 µM (≈ 10.1 µg/mL). For the same molecule, the “TI (IC50/MIC50)” value ([9]; in vitro therapeutic index, VRE) was 40, the MIC [10] was 25 µM (≈ 40.5 µg/mL) and the IC50 [11] was over 250 µM. The MIC [12] was 12.5 µM (≈ 20.3 µg/mL), the “MIC-fold improvement vs. vancomycin” value ([13]; MRSA KS8 (head; KS89 in title), ratio of MIC of vancomycin and MIC of analogue) was 0.1 and the MIC ([13]; Staphylococcus aureus MRSA KS8 (head; KS89 in title), read-out: MIC) was 6.25 µM (≈ 10.1 µg/mL). For the same molecule, the MIC ([14]; VSE1, Enterococcus faecalis VSE 1 (vancomycin-sensitive), read-out: MIC) was over 6.25 µM, the “MIC-fold improvement vs. vancomycin” value ([14]; VSE 1, ratio of MIC of vancomycin and MIC of analogue) was under 0.2 and the “MBC relative to MIC” value [15] was “MBC equaling their MIC values”. The MIC ([16]; Enterococcus faecalis VRE 53 (vancomycin-resistant), read-out: MIC) was 50 µM (≈ 81 µg/mL), the “MIC-fold improvement vs. vancomycin” value ([16]; VRE 53, ratio of MIC of vancomycin and MIC of analogue) was 8 and the MIC [17] was 25 µM (≈ 40.5 µg/mL). The “MIC Range” value ([18]; 24 clinical MRSA isolates) was 0.78 to 12.5 µM, the MIC50 ([18]; Staphylococcus aureus, median MIC, 24 clinical MRSA isolates, read-out: MIC50) was 0.78 µM (≈ 1.26 µg/mL) and the “TI (IC50/MIC50)” value ([18]; in vitro therapeutic index, MRSA) was 321. The IC50 [19] was over 250 µM, the MIC ([20]; Enterococcus faecalis VRE 37 (vancomycin-resistant), read-out: MIC) was 50 µM (≈ 81 µg/mL) and the “MIC-fold improvement vs. vancomycin” value ([20]; VRE 37, ratio of MIC of vancomycin and MIC of analogue) was 8. For the same molecule, the IC50 [21] was over 250 µM, the “MIC-fold improvement vs. vancomycin” value ([22]; MRSA KS2, ratio of MIC of vancomycin and MIC of analogue) was 0.05 and the MIC ([22]; Staphylococcus aureus MRSA KS2, read-out: MIC) was 12.5 µM (≈ 20.3 µg/mL). The MIC ([23]; Enterococcus faecalis VRE 29 (vancomycin-resistant), read-out: MIC) was 50 µM (≈ 81 µg/mL), the “MIC-fold improvement vs. vancomycin” value ([23]; VRE 29, ratio of MIC of vancomycin and MIC of analogue) was 8 and the MIC ([24]; Enterococcus faecalis VRE 6 (vancomycin-resistant), read-out: MIC) was 6.25 µM (≈ 10.1 µg/mL). For the same molecule, the “MIC-fold improvement vs. vancomycin” value ([24]; VRE 6, ratio of MIC of vancomycin and MIC of analogue) was 32, the MIC [25] was over 12.5 µM and the MIC ([26]; ATCC6538, Staphylococcus aureus VSSA, read-out: MIC) was over 6.25 µM. The “MIC-fold improvement vs. vancomycin” value ([26]; VSSA, ratio of MIC of vancomycin and MIC of analogue) was under 0.1, the MIC ([27]; Staphylococcus aureus VISA/HIP5827, read-out: MIC) was over 12.5 µM and the “MIC-fold improvement vs. vancomycin” value ([27]; VISA/HIP5827, ratio of MIC of vancomycin and MIC of analogue) was under 0.5.
